Values after ≈ are worked out from the molar mass of the structure shown.
How the values were obtained:
[1] = tested on: LB tumor cells; experiment: In vitro LB tumor cell proliferation ([3H]-thymidine uptake); assay type: cell-based, mice; conditions: for IC50: Mus musculus, substance alone, read-out: GIU50/mL on in vitro LB tumor cell proliferation; for reversibility of the inhibitory effect: after 18 hours of culture, old medium replaced by fresh medium
Description: Each point (percentage of cpm incorporated by LB cells as compared with the control) represents the mean±SE of 3 experiments. Significance versus control, meta-tyrosine and peak 2: P<0.001 at >2.75 μg/mL; peak 2: P<0.05 at 2.75 μg/mL. ortho-tyrosine P<0.001 at 500 to 125 μg/mL; P<0.002 at 30 μg/mL. Peak 3: P<0.002 and P<0.01, at 31 and 15.5 μg/mL, respectively. Rescue of in vitro LB tumor inhibition mediated by meta-tyrosine (150 μg/mL)(B) or ortho-tyrosine (150 μg/mL) (C) by co-culturing with 150 μg/mL of individual protein amino acids. Each value represents the mean±SE of 8 to 18 determinations for (B) and 4 to 9 determinations for (C). a, P<0.01; c, P<0.001 versus meta- or ortho-tyrosine. Data with saline was similar to data obtained with each amino acid alone.
Fractionation of serum from mice bearing a subcutaneous LB tumor (size≧2,000 mm^3) was carried out through several steps of purification (FIG. 1). Serum from normal mice was similarly fractioned as control. At all stages of the purification, the presence of the inhibitory factor was monitored by the [^3H]-thymidine uptake assay as a measure of LB tumor cell proliferation. First, serum was decomplemented and subjected to dialysis. The inhibitory factor was recovered only in the dialyzable fraction (MW<12,500 Da) and was then concentrated by lyophilization and applied successively to Sephadex G-25 and G-15 chromatographic columns, where activity was recovered at fractions corresponding to a molecular weight below 1,000 Da. These fractions were lyophilized and further purified with an HPLC column C18 in a gradient of acetonitrile in TFA (first HPLC). In 12 similar and independent experiments, growth inhibitory activity was systematically recovered in only 1 fraction eluted at near 20% acetonitrile (FIG. 2).
To test directly whether a “cocktail” of amino acids similar to that detected close to the “primary site” was more counteracting of the antitumor effects produced by m- and o-tyrosine than a “secondary site cocktail,” different concentrations of a mixture of m-tyrosine and o-tyrosine (ratio 1:1) were assayed on LB tumor cell proliferation, alone or together with a primary or a secondary site cocktail of amino acids.

[2] = tested on: MC-C tumor cells; experiment: In vitro proliferation of MC-C tumor cells; assay type: cell-based; conditions: dose-dependent, not shown
[3] = tested on: C7HI tumor cells; experiment: In vitro proliferation of C7HI tumor cells; assay type: cell-based; conditions: dose-dependent, not shown
[4] = tested on: LB tumor; experiment: In vivo growth of s.c. LB tumor implants (primary, secondary under CR, established, ascitic); parameters: species or system mice; conditions: for growth of LB tumor implant: inoculated at the site of a primary tumor implant or systemically, daily for 8 days
Description: Twenty mice received an s.c. implant of 1×10^6 LB cells in the right flank, and, 7 days later, an s.c. secondary implant of 1×10^5 LB tumor cells in the left flank. […] The remaining 10 mice received 0.2 mL of phenylalanine (500 μg/mL) at the site of the secondary implant, daily, for 8 days, starting 1 hour after the secondary inoculum [CR+Phe (-□-)]. Controls were 10 mice receiving 1×10^5 LB tumor cells in the left flank only [control (-Δ-)]. A fourth group received the tumor inoculum in the left flank but also meta-tyrosine at the site of tumor implant (0.2 mL of 500 μg/mL, n=10) or by the intraperitoneal route (0.5 mL of 1,000 μg/mL, n=6), daily, for 8 days, starting 1 hour after tumor inoculum [control+m-Tyr: (-▴-)]. A fifth group received the tumor inoculum in the left flank and also meta-tyrosine (0.2 mL of 500 μg/mL, n=5) at the site of tumor growth, daily for 5 days, starting (see arrow) when LB was an established tumor measuring 60 to 70 mm^3 [est. LB+m-Tyr: (-X-)]. Abscissa, days after tumor implant in the left flank. Ordinate, volume of the tumors implanted in the left flank. CR and control+m-Tyr versus control: P<0.001 at day 9 and P<0.002 at days 5 and 7; CR and control+m-Tyr versus CR+Phe: P<0.001 at days 5, 7 and […]; est. LB+m-Tyr versus control and CR+Phe: P<0.002 at day 9. Control+tyrosine or saline, control; CR+tyrosine or saline, CR. FIG. 6B is a microscopic view showing many tumor cells expressing Ki-67 protein in both CR+phenylalanine (B1) and control (B2) groups and few tumor cells expressing Ki-67 in both CR (B3) and control+meta-tyrosine (B4) groups (H×400). FIG. 6C illustrates a representative experiment showing the frequency distribution histogram of viable LB cells from a control tumor (C1), from a secondary tumor inhibited by CR (C2), and from a tumor inhibited by periodic intraumoral injection of meta-tyrosine (C3). Samples of tumor cells were collected 9 days after the s.c. inoculation of 1×10^5 LB tumor cells.

[5] = tested on: MC-C tumor; experiment: In vivo growth of s.c. MC-C fibrosarcoma implants; parameters: species or system mice; conditions: for effect on growth of MC-C tumor implants: mouse, in vivo
Description: Twelve mice received a s.c. implant of 5×10^6 MC-C tumor cells in the right flank and 25 days later they received a secondary implant of 2×10^6 MC-C tumor cells in the left flank. […] The remaining 6 mice received 0.2 ml of phenylalanine (500 μg/ml) at the site of the secondary implant, daily, for 19 days, starting 1 hour later than the secondary implant. These secondary implants grew as in 6 controls only receiving the implant in the left flank (tumor volumes of secondary tumor+phenylalanine and of controls, 20 days after the implant in the left flank were =680±152 mm^3 and 524±88 mm^3, respectively). […] Significance: Secondary tumor vs. control: p<0.01; vs. secondary tumor+phenylalanine: p<0.02. Control+m-tyrosine vs. control and vs. secondary tumor+phenylalanine: p<0.02.

[6] = Evaluation of toxicity of the tyrosine isomers; assay type: in vivo, mice; conditions: for health of mice after three weeks of treatment / hematologic populations of the blood or the spleen / histological alterations in analyzed tissues / anti-RRC antibody levels: higher dose; for histological alterations in analyzed tissues: three weeks of treatment; for anti-RRC antibody levels: tumor bearing mice and normal mice
Description: The effect of meta-tyrosine and ortho-tyrosine on the immune response triggered by a conventional antigen was evaluated. Ram red cells (RRC) were used.

[7] = tested on: LB tumor; experiment: In vivo growth of s.c. LB tumor implants (primary, secondary under CR, established, ascitic); parameters: species or system mice; conditions: for inhibition of tumor cells in euthymic versus nude mice: mouse, in vivo
[8] = tested on: Chinese-hamster ovary (CHO) cells; conditions: cited from earlier work; for toxicity to CHO cells: incubated in vitro for 7-10 days

Row | Compound | IC50 [1] [mg/L] | reversibility of the inhibitory effect [1] | in vitro proliferation of MC-C tumor cells [2] | in vitro proliferation of C7HI tumor cells [3] | growth of LB tumor implant [4] | effect on growth of MC-C tumor implants [5] | health of mice after three weeks of treatment [6] | hematologic populations of the blood or the spleen [6] | histological alterations in analyzed tissues [6] | anti-RRC antibody levels [6] | inhibition of tumor cells in euthymic versus nude mice [7] | toxicity to CHO cells [8] | also measured
1 | NC(Cc1cccc(O)c1)C(=O)O (stereo not drawn) [meta-tyrosine, 3-hydroxyphenylalanine] | 4.5 ± 0.9 (≈ 24.8 µM) | reversible | inhibited | inhibited | did not grow | sharp inhibitory effects | remained in good health | did not affect | no histological alterations | does not affect | Identical inhibition | toxic | inhibitory effect of m-tyrosine relative to o-tyrosine ([1]; in vitro LB tumor cell proliferation): about 10 times; effect on established s.c. LB tumors ([4]; at site of tumor growth, daily for 5 days, tumor 60 to 70 mm^3 at start): inhibitory; expression of Ki-67 protein in tumor cells ([4]; control+m-tyrosine tumors or secondary implants treated with phenylalanine (FIG. 6B)): low expression of Ki-67; tumor growth when treatment was interrupted ([4]; mouse, in vivo): could reassume their growth; cell-cycle distribution of LB tumor cells ([4]; tumor inhibited by exogenous injection (FIG. 6C)): a decrease in G2-M phases and an increase of the S phase population; tumor volume 20 days after the implant in the left flank ([5]; MC-C implant in left flank only, 0.2 ml of 500 μg/ml daily for 19 days at the site of the implant): 212±57 mm^3; toxic side effects in tumor-bearing mice ([6]; during treatment of MC-C, CEI and C7HI tumors): without exhibiting toxic side effects; effect on ascitic LB tumor cells ([7]; not shown): inhibitory; CHO cells alive 10 days after start of the in vitro culture ([8]; treated with meta-tyrosine): 70%
2 | NC(Cc1ccccc1O)C(=O)O (stereo not drawn) [ortho-tyrosine, 2-hydroxyphenylalanine] | 46.7 ± 5.2 (≈ 258 µM) | reversible | inhibited | inhibited | inhibitory | inhibitory | remained in good health | did not affect | no histological alterations | does not affect | Identical inhibition | toxic | 

From patent US20140323575A1, “TYROSINE ISOMERS AS THERAPEUTIC AGENTS” (CONSEJO NACIONAL DE INVESTIGACIONES CIENTIFICAS Y TECNICAS …, priority 2011, published 2014)
